Assays:
green foxtail [1] = assay: Test Example 5: herbicidal effect by foliage application, plastic box (Table 20, symbol G); assay type: in vivo, green foxtail (Setaria viridis); settings: foliage application, 320 g/ha, three weeks after application
In short: (§1)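 Sow seeds spot-wise in sterilized diluvial soil; cover with ~1.5 cm soil. Grow 14 days in greenhouse, 25° C. to 30° C. Spray foliage with emulsion diluted to predetermined amount. Rate effect after 3 weeks.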

Italian ryegrass [2] = assay: Test Example 4: herbicidal effect by soil treatment (Table 19, symbol K); assay type: in vivo, Italian ryegrass (Lolium multiflorum); settings: amount of applied herbicide 320 g/ha
In short: (§2)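 Soil-surface application: an emulsion agent diluted with water to the predetermined dose is sprayed uniformly over seeds lying under roughly 1.5 cm of sterilized diluvial soil. Boxes stay in a greenhouse at 25° C. to 30° C. Three weeks later, each species is graded on previously defined criteria.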

green foxtail [3] = assay: Test Example 4: herbicidal effect by soil treatment (Table 19, symbol G); assay type: in vivo, green foxtail (Setaria viridis); settings: amount of applied herbicide 320 g/ha
In short: as §2

wild oat [4] = assay: Test Example 4: herbicidal effect by soil treatment (Table 19, symbol I); assay type: in vivo, wild oat (Avena fatua); settings: amount of applied herbicide 320 g/ha
In short: as §2

redroot pigweed = assay: Test Example 4: herbicidal effect by soil treatment (Table 19, symbol N); assay type: in vivo, redroot pigweed (Amaranthus retroflexus); settings: amount of applied herbicide 320 g/ha
In short: as §2

lambsquarters [5] = assay: Test Example 4: herbicidal effect by soil treatment (Table 19, symbol O); assay type: in vivo, lambsquarters (Chenopodium album); settings: amount of applied herbicide 320 g/ha
In short: as §2

southern crabgrass [6] = assay: Test Example 4: herbicidal effect by soil treatment (Table 19, symbol F); assay type: in vivo, southern crabgrass (Digitaria ciliaris); settings: amount of applied herbicide 320 g/ha
In short: as §2

rice flat sedge = assay: Test Example 3: herbicidal effect by foliage application, Wagner pot (Table 18, symbol E); assay type: in vivo, rice flat sedge (Cyperus iria)
In short: (§3)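 Plants were sown in alluvial soil held under 0.1–0.5 cm standing water and grown 14 days in a greenhouse at 25–30 °C. An emulsifiable formulation, water-diluted to the set dose, was then sprayed onto the foliage, and effects were scored three weeks later using previously defined criteria.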

wild oat [7] = assay: Test Example 5: herbicidal effect by foliage application, plastic box (Table 20, symbol I); assay type: in vivo, wild oat (Avena fatua); settings: foliage application, 320 g/ha, three weeks after application
In short: as §1

blackgrass [8] = assay: Test Example 4: herbicidal effect by soil treatment (Table 19, symbol J); assay type: in vivo, blackgrass (Alopecurus myosuroides); settings: amount of applied herbicide 320 g/ha
In short: as §2

barnyard grass [9] = assay: Test Example 4: herbicidal effect by soil treatment (Table 19, symbol H); assay type: in vivo, barnyard grass (Echinochloa crus-galli); settings: amount of applied herbicide 320 g/ha
In short: as §2

Japanese bulrush = assay: Test Example 1: herbicidal activity, application before weed generation under submerged conditions (Table 16, symbol B); assay type: in vivo, Japanese bulrush (Schoenoplectus juncoides); settings: amount of applied herbicide 320 g/ha
In short: (§4)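 Submerged Wagner pots (alluvial soil, 4 cm water) sown with weed seeds and planted with 2.5-leaf rice seedlings; emulsifiable concentrate diluted in water applied to water surface on sowing day. Held in greenhouse at 25-30 °C; injury scored 0-5 by herbicidal rate after three weeks.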

oval-leafed pondweed = assay: Test Example 1: herbicidal activity, application before weed generation under submerged conditions (Table 16, symbol C); assay type: in vivo, oval-leafed pondweed (Monochoria vaginalis); settings: amount of applied herbicide 320 g/ha
In short: as §4

persian speedwell [10] = assay: Test Example 5: herbicidal effect by foliage application, plastic box (Table 20, symbol R); assay type: in vivo, Persian speedwell (Veronica persica); settings: foliage application, 320 g/ha, three weeks after application
In short: as §1

velvetleaf [11] = assay: Test Example 4: herbicidal effect by soil treatment (Table 19, symbol M); assay type: in vivo, velvetleaf (Abutilon theophrasti); settings: amount of applied herbicide 320 g/ha
In short: as §2

barnyard grass [12] = assay: Test Example 3: herbicidal effect by foliage application, Wagner pot (Table 18, symbol H); assay type: in vivo, barnyard grass (Echinochloa crus-galli)
In short: as §3

lambsquarters [13] = assay: Test Example 5: herbicidal effect by foliage application, plastic box (Table 20, symbol O); assay type: in vivo, lambsquarters (Chenopodium album); settings: foliage application, 320 g/ha, three weeks after application
In short: as §1

blackgrass [14] = assay: Test Example 5: herbicidal effect by foliage application, plastic box (Table 20, symbol J); assay type: in vivo, blackgrass (Alopecurus myosuroides); settings: foliage application, 320 g/ha, three weeks after application
In short: as §1

barnyard grass [15] = assay: Test Example 5: herbicidal effect by foliage application, plastic box (Table 20, symbol H); assay type: in vivo, barnyard grass (Echinochloa crus-galli); settings: foliage application, 320 g/ha, three weeks after application
In short: as §1

chickweed = assay: Test Example 4: herbicidal effect by soil treatment (Table 19, symbol P); assay type: in vivo, common chickweed (Stellaria media); settings: amount of applied herbicide 320 g/ha
In short: as §2

persian speedwell [16] = assay: Test Example 4: herbicidal effect by soil treatment (Table 19, symbol R); assay type: in vivo, Persian speedwell (Veronica persica); settings: amount of applied herbicide 320 g/ha
In short: as §2

late watergrass = assay: Test Example 1: herbicidal activity, application before weed generation under submerged conditions (Table 16, symbol A); assay type: in vivo, late watergrass (Echinochloa oryzicola); settings: amount of applied herbicide 320 g/ha
In short: as §4

southern crabgrass [17] = assay: Test Example 5: herbicidal effect by foliage application, plastic box (Table 20, symbol F); assay type: in vivo, southern crabgrass (Digitaria ciliaris); settings: foliage application, 320 g/ha, three weeks after application
In short: as §1

false cleavers = assay: Test Example 4: herbicidal effect by soil treatment (Table 19, symbol Q); assay type: in vivo, false cleavers (Galium spurium); settings: amount of applied herbicide 320 g/ha
In short: as §2

Chinese sprangletop = assay: Test Example 3: herbicidal effect by foliage application, Wagner pot (Table 18, symbol D); assay type: in vivo, chinese sprangletop (Leptochloa chinensis)
In short: as §3

velvetleaf [18] = assay: Test Example 5: herbicidal effect by foliage application, plastic box (Table 20, symbol M); assay type: in vivo, velvetleaf (Abutilon theophrasti); settings: foliage application, 320 g/ha, three weeks after application
In short: as §1

Italian ryegrass [19] = assay: Test Example 5: herbicidal effect by foliage application, plastic box (Table 20, symbol K); assay type: in vivo, Italian ryegrass (Lolium multiflorum); settings: foliage application, 320 g/ha, three weeks after application
In short: as §1

windgrass [20] = assay: Test Example 5: herbicidal effect by foliage application, plastic box (Table 20, symbol L); assay type: in vivo, windgrass (Apera spica-venti); settings: foliage application, 320 g/ha, three weeks after application
In short: as §1

windgrass [21] = assay: Test Example 4: herbicidal effect by soil treatment (Table 19, symbol L); assay type: in vivo, windgrass (Apera spica-venti); settings: amount of applied herbicide 320 g/ha
In short: as §2

[22] = amount of applied herbicide 320 g/ha

Row | Structure (SMILES) | herbicidal effect on green foxtail (G) (green foxtail [1]) | K: Italian ryegrass, herbicidal effect grade (Italian ryegrass [2]) | G: green foxtail, herbicidal effect grade (green foxtail [3]) | I: wild oat, herbicidal effect grade (wild oat [4]) | N: redroot pigweed, herbicidal effect grade (redroot pigweed) | O: lambsquarters, herbicidal effect grade (lambsquarters [5]) | F: southern crabgrass, herbicidal effect grade (southern crabgrass [6]) | herbicidal effect on wild oat (I) (wild oat [7]) | J: blackgrass, herbicidal effect grade (blackgrass [8]) | H: barnyard grass, herbicidal effect grade (barnyard grass [9]) | Herbicidal effect, B: Japanese bulrush (Japanese bulrush) | Herbicidal effect, C: oval-leafed pondweed (oval-leafed pondweed) | herbicidal effect on persian speedwell (R) (persian speedwell [10]) | M: velvetleaf, herbicidal effect grade (velvetleaf [11]) | herbicidal effect on lambsquarters (O) (lambsquarters [13]) | herbicidal effect on blackgrass (J) (blackgrass [14]) | herbicidal effect on barnyard grass (H) (barnyard grass [15]) | P: chickweed, herbicidal effect grade (chickweed) | R: persian speedwell, herbicidal effect grade (persian speedwell [16]) | Herbicidal effect, A: late watergrass (late watergrass) | other results
1 | Cc1nn(C)c(=O)c(-c2c(-c3ccc(OC(F)F)cc3)sc3cc(F)c(F)cc23)c1O [5-084] | 4 (Herbicidal rate of 70% or more and less than 90%) | 0 (Herbicidal rate of 5% or less (almost no effect)) | 2 (Herbicidal rate of 20% or more and less than 40%) | 0 (Herbicidal rate of 5% or less (almost no effect)) | 5 (Herbicidal rate of 90% or more (almost completely withered)) | 5 (Herbicidal rate of 90% or more (almost completely withered)) | 0 (Herbicidal rate of 5% or less (almost no effect)) | 3 (Herbicidal rate of 40% or more and less than 70%) | 0 (Herbicidal rate of 5% or less (almost no effect)) | 1 (Herbicidal rate of 5% or more and less than 20%) | 2 (Herbicidal rate of 20% or more and less than 40%) | 0 (Herbicidal rate of 5% or less (almost no effect)) | 5 (Herbicidal rate of 90% or more (almost completely withered)) | 4 (Herbicidal rate of 70% or more and less than 90%) | 5 (Herbicidal rate of 90% or more (almost completely withered)) | 4 (Herbicidal rate of 70% or more and less than 90%) | 2 (Herbicidal rate of 20% or more and less than 40%) | 0 (Herbicidal rate of 5% or less (almost no effect)) | 3 (Herbicidal rate of 40% or more and less than 70%) | 3 (Herbicidal rate of 40% or more and less than 70%) | herbicidal effect on rice flat sedge (E) (rice flat sedge; 320 g/ha): 3 (Herbicidal rate of 40% or more and less than 70%); herbicidal effect on barnyard grass (H) (barnyard grass [12]; 320 g/ha): 4 (Herbicidal rate of 70% or more and less than 90%); herbicidal effect on southern crabgrass (F) (southern crabgrass [17]): 4 (Herbicidal rate of 70% or more and less than 90%); Q: false cleavers, herbicidal effect grade (false cleavers): 2 (Herbicidal rate of 20% or more and less than 40%); herbicidal effect on Chinese sprangletop (D) (Chinese sprangletop; 320 g/ha): 0 (Herbicidal rate of 5% or less (almost no effect)); herbicidal effect on velvetleaf (M) (velvetleaf [18]): 5 (Herbicidal rate of 90% or more (almost completely withered)); herbicidal effect on Italian ryegrass (K) (Italian ryegrass [19]): 5 (Herbicidal rate of 90% or more (almost completely withered)); herbicidal effect on windgrass (L) (windgrass [20]): 5 (Herbicidal rate of 90% or more (almost completely withered)); L: windgrass, herbicidal effect grade (windgrass [21]): 5 (Herbicidal rate of 90% or more (almost completely withered))
2 | Cc1nn(C)c(=O)c(-c2c(-c3ccc(OCC(F)(F)F)cc3)oc3ccc(F)cc23)c1O [9-035] | 5 (Herbicidal rate of 90% or more (almost completely withered)) | 5 (Herbicidal rate of 90% or more (almost completely withered)) | 5 (Herbicidal rate of 90% or more (almost completely withered)) | 2 (Herbicidal rate of 20% or more and less than 40%) | 5 (Herbicidal rate of 90% or more (almost completely withered)) | 5 (Herbicidal rate of 90% or more (almost completely withered)) | 5 (Herbicidal rate of 90% or more (almost completely withered)) | 5 (Herbicidal rate of 90% or more (almost completely withered)) | 5 (Herbicidal rate of 90% or more (almost completely withered)) | 5 (Herbicidal rate of 90% or more (almost completely withered)) | 0 (Herbicidal rate of 5% or less (almost no effect)) | 0 (Herbicidal rate of 5% or less (almost no effect)) | 5 (Herbicidal rate of 90% or more (almost completely withered)) | 4 (Herbicidal rate of 70% or more and less than 90%) | 4 (Herbicidal rate of 70% or more and less than 90%) | 5 (Herbicidal rate of 90% or more (almost completely withered)) | 5 (Herbicidal rate of 90% or more (almost completely withered)) | 5 (Herbicidal rate of 90% or more (almost completely withered)) | 5 (Herbicidal rate of 90% or more (almost completely withered)) | 2 (Herbicidal rate of 20% or more and less than 40%) | Herbicidal effect on E (rice flat sedge), foliage application (rice flat sedge; [22]): 5 (Herbicidal rate of 90% or more (almost completely withered)); Herbicidal effect on H (barnyard grass), foliage application (barnyard grass [12]; [22]): 5 (Herbicidal rate of 90% or more (almost completely withered)); herbicidal effect on southern crabgrass (F) (southern crabgrass [17]): 5 (Herbicidal rate of 90% or more (almost completely withered)); Q: false cleavers, herbicidal effect grade (false cleavers): 3 (Herbicidal rate of 40% or more and less than 70%); Herbicidal effect on D (Chinese sprangletop), foliage application (Chinese sprangletop; [22]): 3 (Herbicidal rate of 40% or more and less than 70%); herbicidal effect on velvetleaf (M) (velvetleaf [18]): 5 (Herbicidal rate of 90% or more (almost completely withered)); herbicidal effect on Italian ryegrass (K) (Italian ryegrass [19]): 5 (Herbicidal rate of 90% or more (almost completely withered)); herbicidal effect on windgrass (L) (windgrass [20]): 5 (Herbicidal rate of 90% or more (almost completely withered)); L: windgrass, herbicidal effect grade (windgrass [21]): 5 (Herbicidal rate of 90% or more (almost completely withered))
